From doi:10.1101/2022.12.02.518844v2 (bioRxiv, 2022)

System: 1057 cells (GRPR^pos)
Assay: Cell growth of GRPR^pos mouse melanoma cells
Format: cell-based
Conditions: 1 µM GRPR inhibitor + 10 nM GRP, low-serum medium, 48 h

COc1ccc(C2(CNC(=O)[C@](C)(Cc3c[nH]c4ccccc34)NC(=O)Nc3ccc([N+](=O)[O-])cc3)CCCCC2)nc1 [PD-176252]
GRP-induced growth assessed by MTT: same blocking effect
